The values that follow come from ChEMBL document CHEMBL1944632, “Synthesis, anti-HBV activity and renal cell toxicity evaluation of mixed phosphonate prodrugs of adefovir” (Eur J Med Chem, 2012).

A value given as a limit tells only on which side of the number the result lay.

The subject of data set [1] is Hepatitis B virus. Nature of the data set: Antiviral activity against Hepatitis B virus infected in human HepG2(2.2.15) cells assessed as inhibition of viral replication incubated for 2 days followed by wash out measured after 10 days by RT-PCR analysis. It is filed as functional, organism-based.
A short description of data set [2]: Selectivity index, ratio of CC50 for HepG2(2.2.15) infected with HBV DNA to EC50 for Hepatitis B virus infected in human HepG2(2.2.15) cells.
A short description of data set [3]: Chemical stability of the compound assessed as drug decomposition at 1 mM in phosphate buffer at pH 7.4 after 24 hrs by HPLC analysis. It is filed as physicochemical. The note with it: read-out: Drug degradation.
Data set [4] can be described thus: Nephrotoxicity in human HK2 cells assessed as LDH release at 1 uM measured after 24 hrs. It is filed as toxicity, cell-based. Particulars: hk-2, 24 h. On the technique in general: LDH leaks from cells whose membrane has failed.
Data set [5] is described as follows: Nephrotoxicity in human HK2 cells assessed as LDH release at 100 uM measured after 24 hrs. Particulars: hk-2, 24 h. It is filed as toxicity, cell-based.
Data set [6] can be described thus: Chemical stability of the compound assessed as drug decomposition at 1 mM in phosphate buffer at pH 2 after 24 hrs by HPLC analysis. Particulars: read-out: Drug degradation. It is filed as physicochemical.
A short description of data set [7]: Cytotoxicity against human HK2 cells by MTT assay. It is filed as cell-based, HK-2. On the technique in general: Formazan colour is commonly taken as a measure of viable cells.
The nature of data set [8]: Cytotoxicity against human HepG2(2.2.15) cells infected with HBV DNA. It is filed as cell-based.
Data set [9] is described as follows: Nephrotoxicity in human HK2 cells assessed as LDH release at 10 uM measured after 24 hrs. It is filed as toxicity, cell-based. Particulars: hk-2, 24 h.
A short description of data set [10]: Half life in rat plasma at 0.2 mg after 24 hrs by HPLC analysis. It is filed as ADME.
Data set [11] is described as follows: Ratio of adefovir dipivoxil SI to compound SI for ratio of CC50 for HepG2(2.2.15) infected with HBV DNA to EC50 for Hepatitis B virus infected in human HepG2(2.2.15) cells. It is filed as functional.
In data set [12] the test system is Hepatitis B virus. The experiment in a line: Ratio of adefovir dipivoxil to compound EC50 for Hepatitis B virus infected in human HepG2(2.2.15) cells assessed as inhibition of viral replication incubated for 2 days followed by wash out measured after 10 days by RT-PCR analysis. It is filed as functional.

For the compound `CC[C@H](C)[C@H](N)C(=O)OCCOP(=O)(COCCn1cnc2c(N)ncnc21)OCCCOC(=O)C(C)c1cccc(C(=O)c2ccccc2)c1` (some centres not stated), in [1], the EC50 was determined as 0.73 µM. The “Ratio CC50/EC50” value in data set [2] amounted to 881.92. The results for the degraded at 24 h, 1000 µM in data set [3] and in data set [6] were 12.5% and 14.9%, respectively. Moreover, the values for the Activity in data set [4], in data set [5] and in data set [9] were 37.85%, 43.51% and 36.92%, respectively. Moreover, the values for the half-maximal cytotoxic concentration (CC50) in [7] and in [8] were 768 µM and 644 µM, respectively.
Turning to `CC(C(=O)OCCCOP(=O)(COCCn1cnc2c(N)ncnc21)OCCCSC(=O)[C@@H](N)C(C)C)c1cccc(C(=O)c2ccccc2)c1` (some centres not stated), the concentration for a half-maximal effect (EC50) in data set [1] was 26.9 µM. For the same compound, the “Ratio CC50/EC50” value in data set [2] is recorded as 39.01. Moreover, the cytotoxic concentration (CC50) in data set [8] came to 1050 µM.
Take `CC[C@H](C)[C@H](N)C(=O)SCCCOP(=O)(COCCn1cnc2c(N)ncnc21)OCCCOC(=O)C(C)c1cccc(C(=O)c2ccccc2)c1` (some centres not stated): the EC50 in data set [1] worked out at 44.9 µM. Besides, in [2], the “Ratio CC50/EC50” value turned out to be 22.29. Moreover, the CC50 in data set [8] is 1000 µM.
In the same order, the values of `CC(C(=O)OCCCOP(=O)(COCCn1cnc2c(N)ncnc21)OCCCSC(=O)[C@@H](N)Cc1ccccc1)c1cccc(C(=O)c2ccccc2)c1` (some centres not stated) are 29.8 µM, 33.47 and 1000 µM.
Take `CC(C)Cc1ccc(C(C)C(=O)OCCCOP(=O)(COCCn2cnc3c(N)ncnc32)OCCOC(=O)[C@@H](N)C(C)C)cc1` (some centres not stated): the half-maximal effective concentration (EC50) in data set [1] worked out at 8.8 µM. Besides, the “Ratio CC50/EC50” value in [2] was determined as 65.56. The figures for the degraded at 24 h, 1000 µM in [3] and in [6] were 7.8% and 9.6%, respectively. The Activity in [4] is 35.41%; in data set [5], 36.87%; in [9] it was 36.25%. Moreover, in data set [10], the half-life is 1.5 h. Moreover, the values for the CC50 in [7] and in [8] were over 1000 µM and 577 µM, respectively.
For the compound `CC[C@H](C)[C@H](N)C(=O)OCCOP(=O)(COCCn1cnc2c(N)ncnc21)OCCCOC(=O)C(C)c1ccc(CC(C)C)cc1` (some centres not stated), the EC50 in data set [1] came to 12.5 µM. The “Ratio CC50/EC50” value in data set [2] is 39.11. Moreover, the degraded at 24 h, 1000 µM in [3] came out at 9.1%; in [6], 12.7%. The Activity worked out at 36.25% in data set [4], 40.6% in data set [5] and 36.67% in [9]. In [10], the half-life is 0.75 h. The CC50 was over 1000 µM in [7] and 488 µM in data set [8].
In the case of `CC(C)Cc1ccc(C(C)C(=O)OCCCOP(=O)(COCCn2cnc3c(N)ncnc32)OCCCSC(=O)[C@@H](N)C(C)C)cc1` (some centres not stated), in [1], the EC50 worked out at 22.7 µM. Besides, the “Ratio CC50/EC50” value in [2] came out at 5.37. This compound showed a half-maximal cytotoxic concentration (CC50) in data set [8] of 122 µM.
In the same order, the values of `CC[C@H](C)[C@H](N)C(=O)SCCCOP(=O)(COCCn1cnc2c(N)ncnc21)OCCCOC(=O)C(C)c1ccc(CC(C)C)cc1` (some centres not stated) are 50 µM, 3.14 and 157 µM.
Turning to `CC[C@H](C)[C@H](N)C(=O)OCCOP(=O)(COCCn1cnc2c(N)ncnc21)OCCCOC(=O)C(C)c1ccc(-c2ccccc2)c(F)c1` (some centres not stated), in data set [1], the EC50 was 2.26 µM. In addition, in [2], the “Ratio CC50/EC50” value came to 299.69. Moreover, the degraded at 24 h, 1000 µM in data set [3] worked out at 12.6%; in [6], 15.3%. Also, the Activity in [4] was 35.89%; in data set [5], 40.52%; in data set [9] it was 36.95%. In data set [10], the half-life is 3.5 h. Moreover, the CC50 in [7] is over 1000 µM; in data set [8], 677 µM.
Regarding `CC(C(=O)OCCCOP(=O)(COCCn1cnc2c(N)ncnc21)OCCOC(=O)[C@@H](N)Cc1ccccc1)c1ccc(-c2ccccc2)c(F)c1` (some centres not stated), the 50% effective concentration (EC50) in [1] was determined as 3.34 µM. Moreover, the “Ratio CC50/EC50” value in [2] was determined as 170.21. In addition, the figures for the degraded at 24 h, 1000 µM in [3] and in data set [6] were 10.3% and 14.7%, respectively. The figures for the Activity in [4], in data set [5] and in data set [9] were 34.68%, 42.71% and 35.95%, respectively. In data set [10], this compound gave a half-life of 2.05 h. Also, the figures for the CC50 in data set [7] and in data set [8] were 906 µM and 568 µM, respectively.
With `CC[C@H](C)[C@H](N)C(=O)SCCCOP(=O)(COCCn1cnc2c(N)ncnc21)OCCCOC(=O)C(C)c1ccc(-c2ccccc2)c(F)c1` (some centres not stated), the 50% effective concentration (EC50) in data set [1] came to 36.7 µM. For the same compound, in data set [2], the “Ratio CC50/EC50” value is 9.88. In addition, the midpoint of cytotoxicity in [8], the CC50, lay at 363 µM.
On the same counts, the results for `CC(C(=O)OCCCOP(=O)(COCCn1cnc2c(N)ncnc21)OCCCSC(=O)[C@@H](N)Cc1ccccc1)c1ccc(-c2ccccc2)c(F)c1` (some centres not stated) are 48.9 µM, 4.12 and 202 µM.
On to `CC(C(=O)OCCCOP(=O)(COCCn1cnc2c(N)ncnc21)OCCOC(=O)[C@@H](N)C(C)C)c1cccc(C(=O)c2ccccc2)c1` (some centres not stated), for which the Ratio in data set [11] was found to be 4. Besides, the EC50 in [1] stood at 0.51 µM. The “Ratio CC50/EC50” value in data set [2] was determined as 1697.64. Moreover, the degraded at 24 h, 1000 µM in [3] was 8.3%; in data set [6] it was 11.2%. For the same compound, the Activity in [4] amounted to 37.63%; in data set [5], 44.9%; in [9], 38.72%. The same compound gave a half-life in [10] of 2.75 h. For the same compound, the “Ratio EC50” value in data set [12] came to 2. In addition, the figures for the CC50 in data set [7] and in data set [8] were 840 µM and 866 µM, respectively.
`CC(C)(C)C(=O)OCOP(=O)(COCCn1cnc2c(N)ncnc21)OCOC(=O)C(C)(C)C` [ADEFOVIR DIPIVOXIL]: the EC50 in data set [1] was found to be 0.96 µM. Besides, the “Ratio CC50/EC50” value in data set [2] worked out at 490.73. Moreover, the figures for the degraded at 24 h, 1000 µM in data set [3] and in data set [6] were 39.1% and 42.5%, respectively. The values for the Activity in [4], in [5] and in [9] were 42.32%, 50.02% and 47.49%, respectively. The same compound showed a half-life in [10] of 0.52 h. Besides, the 50% cytotoxic concentration (CC50) is 488 µM in data set [7] and 471 µM in data set [8].

One may read the EC50 as the concentration that produces a half-maximal response. The term CC50 denotes the concentration that lowers cell viability or growth by half. A lower CC50 goes with greater toxicity to the cells. Usually half-life stands for the time needed for the level to fall by half in the phase considered. Higher therefore signals slow decline.
